# According to PMC5871694, “S-Adenosyl-L-Homocysteine Hydrolase Inhibition by a Synthetic Nicotinamide Cofactor Biomimetic” (Frontiers in Microbiology, 2018):
# Several values for one entry are separate records, joined by “and”; a condition that tells them apart may be missing. Equal values may be shown once. Read-outs that look alike come from different tables or passages of the source.
# Key:
# bovine liver SAHase = molecular target: bovine liver SAHase; set-up: method as in Porter and Boyd, 1992; conditions: cited from earlier work
# [1] = molecular target: SAHase from Trypanosoma cruzi; set-up: method as in Li Q.-S. et al., 2007; conditions: ref Li Q.-S. et al., 2007; cited from earlier work
# SAHase from humans = molecular target: SAHase from humans; set-up: method as in Li Q.-S. et al., 2007; conditions: human SAHase; ref Li Q.-S. et al., 2007; cited from earlier work
# [2] = molecular target: T1, Bradyrhizobium elkanii SAHase (BeSAHase) (Bradyrhizobium elkanii, UniProt A0A087WNH6); assay: Isothermal titration calorimetry (ITC); format: binding; conditions: for KD: apo-BeSAHase titrated with cofactor, 25°C, pH 7; for binding to apo-BeSAHase: titration of apo-BeSAHase; for binding to holo-BeSAHase: titration of holo-BeSAHase
# T1 construct: His-tag (N); made in house; host or cells: E. coli
# T1 sequence (A0A087WNH6 1-473): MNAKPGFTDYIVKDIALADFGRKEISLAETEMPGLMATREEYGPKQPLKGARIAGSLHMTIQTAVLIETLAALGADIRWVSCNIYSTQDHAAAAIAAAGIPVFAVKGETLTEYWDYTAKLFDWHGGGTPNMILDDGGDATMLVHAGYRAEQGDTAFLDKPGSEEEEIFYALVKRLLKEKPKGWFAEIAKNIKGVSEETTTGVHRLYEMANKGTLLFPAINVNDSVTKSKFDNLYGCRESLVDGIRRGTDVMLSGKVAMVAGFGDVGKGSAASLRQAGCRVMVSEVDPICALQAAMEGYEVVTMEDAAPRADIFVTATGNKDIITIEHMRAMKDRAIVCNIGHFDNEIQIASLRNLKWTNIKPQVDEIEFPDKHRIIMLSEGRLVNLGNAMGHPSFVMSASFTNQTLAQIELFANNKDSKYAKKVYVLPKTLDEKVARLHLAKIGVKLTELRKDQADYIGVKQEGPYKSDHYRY
# Description: Interaction analyses by ITC were performed with an Affinity ITC microcalorimeter (Low Volume, 24 K Gold Cell; TA Instruments). Prior to measurements, protein was dialyzed into 20 mM MOPS buffer containing 150 mM NaCl. The buffer was adjusted to pH 7 at room temperature, but dialysis was carried out at 4°C. To ensure equal buffer conditions, ligands were dissolved and diluted in the same buffer that was used for the last step of protein dialysis. Measurements were carried out at a constant cell temperature of 25°C. The cell was equilibrated with 40–90 μM SAHase for at least 10 min before the first injection of the respective ligand. The volume of the injections was varied between 2 and 4 μL, depending on the experiment and ligand concentration. The spacing between injections was adjusted according to the time required to reach the binding equilibrium (usually 240–500 s). Ligand titration was continued until peak sizes remained constant, representing only the enthalpy of dilution. The latter was subtracted from the raw data using a mock titration of the ligand into buffer only. Data evaluation was performed with the NanoAnalyze software (v. 3.7.5; TA Instruments), using the model “independent set of multiple binding sites” ([Freire et al., 1990]) for KD determination.
# [3] = molecular target: T1, Bradyrhizobium elkanii SAHase (BeSAHase); assay: Photometric DTNB kinetic assay in the hydrolytic direction (SAH hydrolysis); format: biochemical
# Description: Reactions were performed at room temperature in 100 μL sodium phosphate buffer (100 mM, pH 8), supplemented with 1 mM EDTA, 0.2 mM 5,5′-dithiobis(2-nitrobenzoic acid) (DTNB) and SAHase. In experiments with defined NAD^+ concentrations, apo-SAHase was pre-incubated with the respective amount of cofactor for at least 2 h, to ensure that the binding equilibrium was reached before initiation of the reaction. Enzyme concentrations were adjusted according to specific activity, to avoid exceeding maximum reaction rates (vmax) of 0.01 mM⋅min^-1. Higher reaction rates would lead to product inhibition, caused by the accumulation of Ado, in the time frame of the measurement. Reactions were initiated by addition of the substrate (SAH). The reaction rate was monitored photometrically, using DTNB to detect the formation of Hcy. Experiments were carried out in a double-beam UV-vis spectrophotometer (Specord 205, Analytik Jena). Initial reaction rates (v0) were calculated from the first 20–25 s of the reaction, based on the increase of extinction (ΔE) at 412 nm over time (Δt) in a quartz cuvette with a path length (d) of 1 cm, assuming an extinction coefficient (ε) of 14,150 L cm^-1 mol^-1 for the product: v0 = ΔE ⋅ ε412 nm–1 ⋅ d^-1 ⋅ Δt^-1. The assay was validated by comparison to data obtained with the coupled photometric assay described by [Kailing et al. (2017)]. The latter assay was not used in this study, since NCB 10 contributes to oxidation of the monitoring compound NADH in a non-enzymatic way, thereby compromising the reliability of the measurement.
# Initial reaction rates were plotted against the concentration of inhibitor and a linear regression analysis was performed as described above for the HPLC assay. The inhibitory constant (Ki) was calculated from the following relation, where KM, [E] and [S] denote the Michaelis–Menten constant, concentration of enzyme and of substrate, respectively: IC50 = Ki ⋅ KM–1 ) + [E]0/2 ([Cha, 1975]). Characterization of the inhibition model was done by measuring Michaelis–Menten kinetics in the presence of varying inhibitor concentrations. KM and maximum reaction rate (vmax) values were obtained by non-linear Michaelis–Menten fitting using GraphPad Prism.
# Kinetic-based binding studies to determine the half-maximum effective concentration (EC50) for NAD^+ were carried out with 330 nM SAHase, after pre-incubation with the respective amount of NAD^+, and constant substrate concentrations (0.2 mM SAH). Initial reaction rates were plotted against the NAD^+ concentration and a hyperbolic fit was calculated using GraphPad Prism. The EC50 was calculated as the NAD^+ concentration leading to half-maximum activation of BeSAHase.
# [4] = physiological pH, cited from earlier work
# [5] = molecular target: T1, Bradyrhizobium elkanii SAHase (BeSAHase); assay: HPLC-based endpoint activity assay in the direction of SAH synthesis; format: biochemical
# Description: HPLC-based activity measurements in the direction of SAH synthesis were carried out as described by [Kailing et al. (2017)], with constant substrate concentrations (0.5 mM) of both Ado and Hcy. For the cofactor screenings, the assay was supplemented with 2 mM of the respective compound and reactions were initiated with ∼10 μg (700 nM final concentrations in assay) of apo- or holo-BeSAHase, respectively. One set of reactions was terminated after 30 min, the other after 17 h. […] Reactions were terminated after 30 min. Conversions were derived from HPLC chromatograms as described before ([Kailing et al., 2017]), plotted against the concentration of inhibitor and a linear regression analysis was performed with the GraphPad Prism software (v. 6.01). The IC50 was calculated as the concentration leading to half-maximum effect of the inhibitor.
# [6] = ref Porter and Boyd, 1992, read-out: KD (estimated)
# [7] = calculated from IC50, KM, enzyme and substrate concentration
structure (smiles),measurement,setting,value
Nc1ncnc2c1ncn2C1OC(CO)C(=O)C1O (stereo not shown) [3′-ketoadenosine],Kd,bovine liver SAHase; [6],0.6 nM
"C=C1OC(n2cnc3c(N)ncnc32)C(O)C1=O (stereo not shown) [4′,5′-dehydro-3′-ketoadenosine]",Kd,bovine liver SAHase; [6],0.3 nM
"Nc1ncnc2c1ncn2[C@@H]1O[C@H](CO)[C@@H](O)[C@H]1O [Ado, adenosine]",Kd,"bovine liver SAHase; ref Porter and Boyd, 1992, read-out: KD",9000 nM
NC(=O)C1=CN([C@@H]2O[C@H](COP(=O)(O)OP(=O)(O)OC[C@H]3O[C@@H](n4cnc5c(N)ncnc54)[C@H](O)[C@@H]3O)[C@@H](O)[C@H]2O)C=CC1 [NADH],KD range,[1],nanomolar
same,KD range,SAHase from humans,nanomolar
same,KD,[2],low micromolar range
"NC(=O)c1ccc[n+]([C@@H]2O[C@H](COP(=O)([O-])OP(=O)(O)OC[C@H]3O[C@@H](n4cnc5c(N)ncnc54)[C@H](O)[C@@H]3O)[C@@H](O)[C@H]2O)c1 [NAD^+, nicotinamide adenine dinucleotide, reference compound]",EC50,"[3]; 330 nM apo-SAHase pre-incubated with NAD+, 0.2 mM SAH, hyperbolic fit, read-out: EC50 (half-maximum activation of BeSAHase)",~10 µM and 11.2 µM
same,redox potential,"[4]; NAD+/NADH, ref Burton and Wilson, 1953",-320 mV
same,reconstitution of activity of apo-SAHase,"[5]; apo-BeSAHase, 2 mM compound, 0.5 mM Ado and Hcy, 30 min and 17 h",recovered highly active enzyme
same,time to full substrate conversion after re-supplementation of apo-SAHase,"[5]; apo-BeSAHase, HPLC-based assay conditions",less than 30 min
same,KD,[2],low micromolar range
N#Cc1ccc[n+](Cc2ccccc2)c1 [NCB 10],IC50,"[3]; 285 nM NAD+-saturated BeSAHase, 0.2 mM SAH, linear regression",~14 mM and 14.4 mM
same,inhibition mechanism,[3]; Michaelis-Menten kinetics with varying inhibitor concentrations,non-competitive
same,Ki,[3]; [7],~2 mM
same,"Ki,hydrolysis",[3]; [7],millimolar range
same,redox potential,"[4]; 10ox/10red, ref Ostovic et al., 1985",-220 mV
same,IC50,"[5]; 100 nM NAD+-saturated SAHase, 0.5 mM Ado and Hcy, 30 min, linear regression",~1.4 mM and 1.44 mM
same,inhibition at 2000 µM,"[5]; holo-SAHase in the presence of excess NAD+, 2 mM compound, read-out: inhibition of substrate conversion",~75%
same,binding to apo-BeSAHase,[2],small binding enthalpies
same,binding to apo-BeSAHase,[2]; listed as 10,"Neither titration of holo-, nor of apo-SAHase gave any hint of a binding event"
same,binding to holo-BeSAHase,[2],small binding enthalpies
same,binding to holo-BeSAHase,[2]; listed as 10,"Neither titration of holo-, nor of apo-SAHase gave any hint of a binding event"
